Measured values published in US20260144798A1, “Disruption of Vascular Smooth Muscle Relaxation by Carfilzomib May be the Primary Reason for CFZ-Induced Vascular Dysfunction” (AMGEN INC., priority 2019, published 2026).
Read-outs that look alike come from different tables or passages of the source.

Key:
rat aortic rings [1] = test: Acetylcholine-induced relaxation of phenylephrine-precontracted rat aortic rings; details: for prevention of CFZ induced vascular dysfunction in the presence of ACh: inhibitor 10 mins before 2.7 μM CFZ for 1 hour, 1 μM Phenylephrine precontraction (FIG. 8A, 9A); for EC50 for ACh-induced relaxation, CFZ in combination with PDE5 inhibitor: PDE5 inhibitor 30 nM, 10-minute pre-treatment before CFZ, CFZ alone 7.3×10^−8, vehicle alone 1.9×10^−8 (FIG. 5B)
Method: (§3) For assessment of the effect of CFZ on vascular relaxation, the pre-treated aortic rings were incubated with 1 μM PE for 20 minutes to induce contraction. For experiments involving sildenafil and tadalafil, a 10-minute pre-treatment with 30 nM of these smooth muscle relaxants was done prior to the incubation with CFZ. After reaching a stable contraction, ACh, sodium nitroprusside (SNP), nifedipine, riociguat, or cinaciguat was added to the chamber at an increasing concentration from 100 pM to 10 μM; each stepwise concentration increase was added after the response to the current concentration reached a plateau. The relaxation was continuously measured and plotted as percent relaxation normalized to the response with 1 μM PE.
(§4) Aortas were isolated from 8-10 week old CD® (Sprague Dawley) rats (from Charles River Laboratories) in an ice-cold, oxygenated (95% O2, 5% CO2) Krebs-Henseleit buffer. The aortas were then carefully cleaned to remove perivascular fat and cut into 2-mm rings that were mounted between two stainless steel wires in the myograph chamber containing 8 mL of Krebs-Henseleit buffer in 95% O2 and 5% CO2 at 37° C. Rings were stretch until a final stretch of 10 mN (Newton) was reached and incubated for 30 mins for equilibration.

rat aortic rings [2] = test: Angiotensin induced contraction (AUC) of rat aortic rings; details: inhibitor 10 mins before 2.7 μM CFZ 1.5 hour; 30 nM Angiotensin (FIG. 11)
Method: Aortas were isolated from 8-10 week old CD® (Sprague Dawley) rats (from Charles River Laboratories) in an ice-cold, oxygenated (95% O2, 5% CO2) Krebs-Henseleit buffer. The aortas were then carefully cleaned to remove perivascular fat and cut into 2-mm rings that were mounted between two stainless steel wires in the myograph chamber containing 8 mL of Krebs-Henseleit buffer in 95% O2 and 5% CO2 at 37° C. Rings were stretch until a final stretch of 10 mN (Newton) was reached and incubated for 30 mins for equilibration. The rings were constricted with 8 mL of 80 mM KPSS for 15 minutes, followed by 3 washes with the Krebs-Henseleit buffer until the force returned to the baseline stretch. The aorta were then treated for one of the following experiments: • For protein expression studies the aortic rings were pre-treated with 100 μM N(gamma)-nitro-L-arginine methyl ester (L-NAME; Sigma-Aldrich) and 10 μM indomethacin for 10 minutes prior to the pre-incubation with CFZ (Amgen Inc.) for 1.5 hours.
Following the two incubation the rings were treated with either vehicle or 2.7 μM CFZ for further 1.5 hours before addition of 30 nM Angiotensin for 30 min. Angiotensin induced transient contraction which returned to the baseline in 30 mins. Area Under the Curve (AUC) of angiotensin induced contraction was measured.
Aortic rings were incubated for 10 min with 100 μM LNAME+10 μM indomethacin (endothelium derived relaxing agents blockers) for 10 mins followed by addition of 10 μM SB 203580 (p38 inhibitor) or PF3644022 (MAPKAPK-2 inhibitor) in some rings for 10 more mins as indicated. This was followed by addition of 2.7 μM CFZ in some rings as indicated for 1.5 hour. 30 nM Angiotensin was added for 30 min. Angiotensin induced transient contraction which returned to the baseline in 30 mins.

rat aortic rings [3] = test: Sodium nitroprusside-induced relaxation of phenylephrine-precontracted rat aortic rings; details: for prevention of CFZ induced vascular dysfunction in the presence of SNP: inhibitor 10 mins before 2.7 μM CFZ for 1 hour, 1 μM Phenylephrine precontraction (FIG. 8B, 9B)
Method: as §3, §4

rat aortic rings [4] = test: Basal vascular tone of isolated rat aortic rings, isometric myograph; details: 10 μM SB 203580 10 mins before 2.7 μM CFZ for 3 hour; LNAME+indomethacin (FIG. 10)
Method: (§1) An isometric myograph (DMT 620M) was used for ex vivo measurement of vascular function. Eight-to 10-week old Sprague Dawley rats (purchased from Charles River Laboratories, Wilmington, MA) were first anesthetized with 3% isoflurane and then euthanized using inhaled desflurane. The aortas were isolated in an ice-cold, oxygenated (95% O2, 5% CO2) Krebs-Henseleit buffer (118.3 mM NaCl, 4.7 mM KCl, 1.2 mM MgSO4, 1.2 mM KH2PO4, 2.5 mM CaCl2, 25 mM NaHCO3, and 11.0 mM glucose; purchased from Sigma-Aldrich, St. Louis, MO). The thoracic aorta was carefully cleaned to remove perivascular fat and cut into 2-mm rings that were mounted between two stainless steel wires in the myograph chamber containing 8 mL of Krebs-Henseleit buffer in 95% O2 and 5% CO2 at 37° C. First, the rings were equilibrated in the chamber for 20 minutes, followed by a gradual increase of mechanical stretch until a final stretch of 10 mN (Newton) was reached. After an additional incubation with fresh buffer for 30 minutes, the rings were constricted with 8 mL of 80 mM KPSS (43 mM NaCl, 80 mM KCl, 2.5 mM CaCl2, 1.2 mM MgSO4, 1.2 mM KH2PO4, 25.0 mM NaHCO3, and 11.0 mM glucose) for 15 to 20 minutes, followed by 3 washes with the Krebs-Henseleit buffer until the force returned to the baseline stretch. The tension of the aortic rings was continuously measured with the Lab Chart 7 data acquisition system (ADInstruments, Colorado Springs, CO). In Some of the experiments the aortic rings were pre-treated with 100 μM N(gamma)-nitro-L-arginine methyl ester (L-NAME; Sigma-Aldrich) and 10 μM indomethacin for 10 minutes prior to the pre-incubation with CFZ (Amgen Inc.) for 2 hours. After an additional incubation with fresh buffer for 30 minutes, the rings were constricted with 8 mL of 80 mM KPSS (43 mM NaCl, 80 mM KCl, 2.5 mM CaCl2, 1.2 mM MgSO4, 1.2 mM KH2PO4, 25.0 mM NaHCO3, and 11.0 mM glucose) for 15 to 20 minutes, followed by 3 washes with the Krebs-Henseleit buffer until the force returned to the baseline stretch. The tension of the aortic rings was continuously measured with the Lab Chart 7 data acquisition system (ADInstruments, Colorado Springs, CO).
To assess the effect of CFZ on vascular contraction, the aortic rings were pre-treated with or without CFZ for 2 hours, followed by treatment with an increasing concentration of phenylephrine (PE) from 10 nM to 1 μM. After the maximum contraction was achieved, the aortic rings were washed 3 times until the force returned to baseline. The contraction was continuously measured and plotted as percent contraction normalized to the response of KPSS. […] The relaxation was continuously measured and plotted as percent relaxation normalized to the response with 1 μM PE. […]

rat aortic rings [5] = test: Nifedipine-induced relaxation of rat aortic rings; details: increasing concentration of nifedipine (FIG. 2C)
Method: An isometric myograph (DMT 620M) was used for ex vivo measurement of vascular function. Eight-to 10-week old Sprague Dawley rats (purchased from Charles River Laboratories, Wilmington, MA) were first anesthetized with 3% isoflurane and then euthanized using inhaled desflurane. The aortas were isolated in an ice-cold, oxygenated (95% O2, 5% CO2) Krebs-Henseleit buffer (118.3 mM NaCl, 4.7 mM KCl, 1.2 mM MgSO4, 1.2 mM KH2PO4, 2.5 mM CaCl2, 25 mM NaHCO3, and 11.0 mM glucose; purchased from Sigma-Aldrich, St. Louis, MO). […] The tension of the aortic rings was continuously measured with the Lab Chart 7 data acquisition system (ADInstruments, Colorado Springs, CO). […]
(§2) To assess the effect of CFZ on vascular contraction, the aortic rings were pre-treated with or without CFZ for 2 hours, followed by treatment with an increasing concentration of phenylephrine (PE) from 10 nM to 1 μM. […] The contraction was continuously measured and plotted as percent contraction normalized to the response of KPSS. […] The relaxation was continuously measured and plotted as percent relaxation normalized to the response with 1 μM PE.

rat aortic rings [6] = test: sGC activator (cinaciguat, riociguat)-induced relaxation of rat aortic rings; details: Rattus norvegicus
Method: as §1, with “In Some of the experiments the aortic rings were pre-treated with 100 μM N(gamma)-nitro-L-arginine methyl ester (L-NAME; Sigma-Aldrich) and 10 μM indomethacin for 10 minutes prior to the pre-incubation with CFZ (Amgen Inc.) for 2 hours. After an additional incubation with fresh buffer for 30 minutes, the rings were constricted with 8 mL of 80 mM KPSS (43 mM NaCl, 80 mM KCl, 2.5 mM CaCl2, 1.2 mM MgSO4, 1.2 mM KH2PO4, 25.0 mM NaHCO3, and 11.0 mM glucose) for 15 to 20 minutes, followed by 3 washes with the Krebs-Henseleit buffer until the force returned to the baseline stretch.” left out
as §2

SMILES | prevention of CFZ induced vascular dysfunction in the presence of ACh (rat aortic rings [1]) | prevention of CFZ-increased angiotensin induced contraction (rat aortic rings [2]) | prevention of CFZ induced vascular dysfunction in the presence of SNP (rat aortic rings [3]) | EC50 for ACh-induced relaxation, CFZ in combination with PDE5 inhibitor (rat aortic rings [1]) | further results
Cc1ccc(-c2ccc3c(ccc4sc5c(c43)NC[C@@H](C)NC5=O)n2)cn1 [PF3644022] | prevented CFZ induced vascular dysfunction | prevented | prevented CFZ induced vascular dysfunction | – | –
C[S+]([O-])c1ccc(-c2nc(-c3ccncc3)c(-c3ccc(F)cc3)[nH]2)cc1 (centres unmarked) [SB203580] | prevented CFZ induced vascular dysfunction | prevented | prevented CFZ induced vascular dysfunction | – | prevention of CFZ induced increase in vascular tone (rat aortic rings [4]): completely prevented
COC(=O)C1=C(C)NC(C)=C(C(=O)OC)C1c1ccccc1[N+](=O)[O-] [nifedipine] | – | – | – | – | plateau of vascular relaxation (rat aortic rings [5]): around 50%
COC(=O)N(C)c1c(N)nc(-c2nn(Cc3ccccc3F)c3ncccc23)nc1N [riociguat] | – | – | – | – | EC50 (rat aortic rings [6]; rings pre-incubated with CFZ (FIG. 4C), read-out: EC50 for relaxation, sGC activator with CFZ): 17 nM; EC50 (rat aortic rings [6]; without CFZ (FIG. 4C), read-out: EC50 for relaxation, sGC activator alone): 18 nM
CCCc1nn(C)c2c(=O)[nH]c(-c3cc(S(=O)(=O)N4CCN(C)CC4)ccc3OCC)nc12 [sildenafil] | – | – | – | 2.8×10^−8 | reversal of CFZ effect on VSM relaxation in the presence of ACh (rat aortic rings [1]; 30 nM pre-treatment 10 minutes before CFZ (FIG. 5B)): reversed the CFZ effect on VSM relaxation; reversal of CFZ effect on VSM relaxation in the presence of SNP (rat aortic rings [3]; 30 nM pre-treatment 10 minutes before CFZ (FIG. 5A)): reversed the CFZ effect on VSM relaxation
CN1CC(=O)N2[C@H](c3ccc4c(c3)OCO4)c3[nH]c4ccccc4c3C[C@@H]2C1=O [tadalafil] | – | – | – | 2.8×10^−8 | –
